# Experiments:
# [1] = tested on: dendritic cells in endocervical model co-culture; test: MIMIC co-culture of primed endocervical epithelial microcarriers with PTE module: dendritic cell recovery; type: cell-based, human; settings: FIG. 2
# Text: (§1) Our experimental design of the MIMIC® co-culture of RWV bioreactor-grown epithelial tissue from selected female reproductive tract tested the efficacy of the differentiated epithelia to pick up and present antigen (FIG. 1). RWV-cultured female reproductive microcarriers of differentiated vaginal and endocervical mucosa were exposed to microbicide/spermicide and bacterial antigen and then introduced to the APC-containing PTE module to study the innate immune responses to Nonoxynol-9 and E. coli bioparticulate treatments.
# (§2) Approximately 3.5-week cultured vaginal tissue aggregates and endocervical tissue aggregates were used to mimic the local mucosal tissue of the female reproductive vaginal and endocervical regions. Cell-bearing microcarrier beads were prepared as follows. Collagen-coated Cytodex beads (Sigma) composed of dextran and having an average size of ˜60-87 microns were prepared for cell attachment by soaking in sterile PBS overnight and autoclaved. […]
# (§3) Specifically, for the differentiated reproductive epithelial microcarrier co-cultures used here, we generated PTE modules over a period of 2 weeks as follows (see FIG. 1). […] Cell layer integrity and viability were assessed by phase contrast microscopy and/or trypan blue exclusion staining. […]
# vaginal epithelial cells = settings: background statement; cited from earlier work
# [2] = tested on: dendritic cells in vaginal model co-culture; test: MIMIC co-culture of primed vaginal epithelial microcarriers with PTE module: dendritic cell recovery; type: cell-based, human; settings: FIG. 2
# Text: as §1, §2, §3
# [3] = tested on: endocervical model co-culture; test: Bioplex cytokine production in co-culture supernatants, endocervical model; type: cell-based, human; settings: FIG. 4
# Method: Vaginal- and endocervix-cell bearing microcarriers were collected, washed, and re-suspended in 30 mL of KSFM complete medium (Invitrogen, with EGF and BPE), CaCl, and Primocin (InvivoGen). They were then placed on a shaker in polystyrene bottles with vented caps in an incubator (5% CO2, 37° C.) to mimic the circular agitation of the RWV bioreactor. The two types of cell-bearing microcarriers were primed using E. coli as the antigen to mimic an in vivo infection of the female reproductive mucosa through the following steps after a day of culture in the incubator. The E. coli was heat-inactivated and the resulting bioparticles were added at a concentration of 1×10^6/mL to the shaker bottles. E. coli bioparticles alone and no-treatment conditions served as positive and baseline controls, respectively.
# The effect of the microbicide nonoxynol-9 (N-9) on antigen priming was studied in experiments by mimicking in vivo microbicidal exposure through the use of Conceptrol®, leading to tissue damage, followed by bacterial infection. Over-the-counter, N-9-containing Conceptrol® was diluted to 20 μg/mL. The concentration of Conceptrol® was chosen to limit massive cell death due to presence of N-9 and reported findings of weakened membrane integrity in the presence of this surfactant microbicide (Dayal, 2003). […]
# [4] = tested on: PTE antigen-presenting cells; test: Total immune cell recovery by trypan blue exclusion and flow cytometry (FIG. 2); type: cell-based, human; settings: FIG. 2 legend; model not specified
# Method: FIG. 2. Total immune cell recovery calculated by trypan blue exclusion and total DCs per treatment were calculated by applying the percentage marker expression from flow cytometry data. […] CD86 and CCR7 expression in the vaginal model also confirm the antigen uptake/presentation responsiveness of the vaginal model.
# The quality of immune APCs was determined by quantifying dendritic cell marker expression (HLA-DR, CD14, CD86, CCR7) from the reverse-transmigrated cell fraction of the MIMIC® co-cultures.
# [5] = N-9 and E. coli bioparticles delivered together
# [6] = single treatment, N-9 20 μg/mL, E. coli bioparticles 1×10^6/mL, overnight co-culture
substance,measurement,setting,value
nonoxynol-9 [N-9],live dendritic cell recovery,[1]; [5],overall reduction in live dendritic cell recovery
same,live dendritic cell recovery,[1]; [6],overall reduction in live dendritic cell recovery
same,effect on vaginal epithelial cells in vitro,vaginal epithelial cells,"increased inflammation, cell death, and damaged tissue mucosa"
same,live dendritic cell recovery,[2]; [5],overall reduction in live dendritic cell recovery
same,live dendritic cell recovery,[2]; [6],overall reduction in live dendritic cell recovery
same,cytokine levels versus no treatment microcarrier plus PTE control,[3],above the no treatment microcarrier plus PTE control
same,total DC viability,[4],reduced
